Source: patent publication US20230365592A1 (Agios Pharmaceuticals, Inc., priority 2022, published 2023)

target: T1, human PAH with the R408W mutation (Homo sapiens, UniProt P00439, R408W); assay: Cell Based Phenylalanine Flux Assay; settings: A375 cells expressing R408W PAH; 24 hrs with compound, then 20 µM sepiapterin and 800 µM 13C9,15N-Phenylalanine for 4 hours; 13C-Tyrosine by LC-MS; average where tested multiple times; read-out: AC50;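 also: after compound treatment, cells received sepiapterin plus isotope-labelled Phenylalanine for 4 hours, then labelled Tyrosine in the medium was quantified, 10-point 2-fold dilution series run in duplicate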
T1 construct: expressed in transfected cells
T1 sequence (P00439 1-452 R408W): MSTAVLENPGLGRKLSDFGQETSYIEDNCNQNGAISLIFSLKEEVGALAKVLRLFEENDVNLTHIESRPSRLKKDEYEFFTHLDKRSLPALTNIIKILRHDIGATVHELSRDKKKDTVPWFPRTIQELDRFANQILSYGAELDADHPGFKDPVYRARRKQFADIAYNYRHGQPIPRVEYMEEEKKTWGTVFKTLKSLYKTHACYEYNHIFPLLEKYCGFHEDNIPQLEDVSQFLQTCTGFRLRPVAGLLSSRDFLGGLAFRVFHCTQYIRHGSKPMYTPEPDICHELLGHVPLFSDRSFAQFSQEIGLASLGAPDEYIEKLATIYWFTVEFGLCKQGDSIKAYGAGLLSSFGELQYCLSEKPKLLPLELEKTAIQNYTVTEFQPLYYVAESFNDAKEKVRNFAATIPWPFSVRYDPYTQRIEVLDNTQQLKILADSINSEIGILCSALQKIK

| SMILES | AC50 [µM] |
| --- | --- |
| Cc1cccn2nc(C3c4nc[nH]c4CCN3C(=O)c3cnn4cc(CCN(C)C)ccc34)cc12 (stereo not drawn) | 1 to 5 |
| O=C(c1oc(-c2ccccn2)nc1C1CC1)N1CCCc2[nH]cnc2[C@H]1c1cc2ccccn2n1 (single isomer, unassigned) | 1 to 5 |
| CC(C)c1nnc(C(=O)N2CCc3[nH]cnc3C2c2cc3cccc(C(F)(F)F)n3n2)o1 (stereo not drawn) | 1 to 5 |
| Cn1nc(C(F)F)cc1C(=O)N1CCc2[nH]cnc2C1c1cc2ccccn2n1 (stereo not drawn) | 1 to 5 |
| Cn1cc(-c2nnc(C(=O)N3CCc4[nH]cnc4C3c3cc4cc(C(F)(F)F)ccn4n3)o2)cn1 (stereo not drawn) | > 5 |
| Cc1nnc(C(=O)N2CCc3[nH]cnc3C2c2cc3cccc(C)n3n2)o1 (stereo not drawn) | 1 to 5 |
| Cc1c(C2c3nc[nH]c3CCN2C(=O)c2nnc(-c3ccn(C)n3)o2)nn2ccccc12 (stereo not drawn) | 1 to 5 |
| Cc1nnc(C(=O)N2CCc3[nH]cnc3C2c2cc3c(F)cccn3n2)o1 (stereo not drawn) | > 5 |

same assay, conditions: A375 cells expressing human PAH R408W; 24 hrs compound incubation; 13C-Tyrosine by LC-MS; average where tested multiple times; read-out: AC50

| SMILES | AC50 [µM] |
| --- | --- |
| Clc1cccc2cc([C@@H]3c4nc[nH]c4CCN3c3ncccn3)nn12 [Example 2454, (S)-4-(7-chloropyrazolo[1,5-a]pyridin-2-yl)-5-(pyrimidin-2-yl)-4,5,6,7-tetrahydro-1H-imidazo[4,5-c]pyridine] | 1 to 5 |
| Fc1ccc(-c2nnc(N3CCc4[nH]cnc4[C@H]3c3cc4c(Cl)cccn4n3)o2)cc1 [Example 2009, (S)-2-(4-(4-chloropyrazolo[1,5-a]pyridin-2-yl)-1,4,6,7-tetrahydro-5H-imidazo[4,5-c]pyridin-5-yl)-5-(4-fluorophenyl)-1,3,4-oxadiazole] | < 0.5 |
| Cc1cccnc1-c1nnc(N2CCc3[nH]cnc3[C@H]2c2cc3c(C4CC4)cccn3n2)o1 [Example 2283, (S)-2-(4-(4-cyclopropylpyrazolo[1,5-a]pyridin-2-yl)-1,4,6,7-tetrahydro-5H-imidazo[4,5-c]pyridin-5-yl)-5-(3-methylpyridin-2-yl)-1,3,4-oxadiazole] | < 0.5 |
| CC(C)c1nnc(N2CCc3[nH]cnc3[C@H]2c2cc3ccccn3n2)o1 [Example 2301, (S)-2-isopropyl-5-(4-(pyrazolo[1,5-a]pyridin-2-yl)-1,4,6,7-tetrahydro-5H-imidazo[4,5-c]pyridin-5-yl)-1,3,4-oxadiazole] | 0.5 to 1 |
| Cc1cccnc1-c1nnc(N2CCc3[nH]cnc3[C@H]2c2cc3cccc(C)n3n2)o1 [Example 2309, (S)-2-(4-(7-methylpyrazolo[1,5-a]pyridin-2-yl)-1,4,6,7-tetrahydro-5H-imidazo[4,5-c]pyridin-5-yl)-5-(3-methylpyridin-2-yl)-1,3,4-oxadiazole] | 0.5 to 1 |
| CC(O)c1nc(Cl)c(C(=O)N2CCc3[nH]cnc3[C@H]2c2cc3ccccn3n2)o1 (single isomer, unassigned) [Example 2376] | 1 to 5 |
| Cc1cccc2cc([C@@H]3c4nc[nH]c4CCN3c3nnc(-c4ccc(F)cc4)o3)nn12 [Example 2010, (S)-2-(4-fluorophenyl)-5-(4-(7-methylpyrazolo[1,5-a]pyridin-2-yl)-1,4,6,7-tetrahydro-5H-imidazo[4,5-c]pyridin-5-yl)-1,3,4-oxadiazole] | < 0.5 |
| O=C(c1nnc(-c2cnn(C(F)(F)F)c2)o1)N1CCc2[nH]cnc2[C@H]1c1cc2ccccn2n1 [Example 2426, (S)-(4-(pyrazolo[1,5-a]pyridin-2-yl)-6,7-dihydro-1H-imidazo[4,5-c]pyridin-5(4H)-yl)(5-(1-(trifluoromethyl)-1H-pyrazol-4-yl)-1,3,4-oxadiazol-2-yl)methanone] | 1 to 5 |
| Cc1cccn2nc([C@@H]3c4nc[nH]c4CCN3C(=O)c3nc4ccccc4s3)cc12 [Example 2502, (S)-benzo[d]thiazol-2-yl(4-(4-methylpyrazolo[1,5-a]pyridin-2-yl)-1,4,6,7-tetrahydro-5H-imidazo[4,5-c]pyridin-5-yl)methanone] | 1 to 5 |
| CC(C)(O)c1ncc(C(=O)N2CCc3[nH]cnc3[C@H]2c2cc3c(F)cccn3n2)o1 [Example 2382, (S)-(4-(4-fluoropyrazolo[1,5-a]pyridin-2-yl)-6,7-dihydro-1H-imidazo[4,5-c]pyridin-5(4H)-yl)(2-(2-hydroxypropan-2-yl)oxazol-5-yl)methanone] | 1 to 5 |
| Cc1cccn2nc([C@H]3c4nc[nH]c4CCN3c3ccc(C(F)(F)F)cn3)cc12 [Example 1940, (R)-4-(4-methylpyrazolo[1,5-a]pyridin-2-yl)-5-(5-(trifluoromethyl)pyridin-2-yl)-4,5,6,7-tetrahydro-1H-imidazo[4,5-c]pyridine] | > 5 |
| FC(F)c1cccc2cc([C@@H]3c4nc[nH]c4CCN3c3ncc(C(F)(F)F)cn3)nn12 [Example 1812, (S)-4-(7-(difluoromethyl)pyrazolo[1,5-a]pyridin-2-yl)-5-(5-(trifluoromethyl)pyrimidin-2-yl)-4,5,6,7-tetrahydro-1H-imidazo[4,5-c]pyridine] | 0.5 to 1 |
| FC(F)(F)c1cnc(N2CCc3[nH]cnc3[C@H]2c2cc3cccc(Cl)n3n2)nc1 [Example 1800, (S)-4-(7-chloropyrazolo[1,5-a]pyridin-2-yl)-5-(5-(trifluoromethyl)pyrimidin-2-yl)-4,5,6,7-tetrahydro-1H-imidazo[4,5-c]pyridine] | < 0.5 |
| O=C(c1nc2ccccc2o1)N1CCc2[nH]cnc2[C@H]1c1cc2c(C(F)F)cccn2n1 [Example 2052, (S)-benzo[d]oxazol-2-yl(4-(4-(difluoromethyl)pyrazolo[1,5-a]pyridin-2-yl)-1,4,6,7-tetrahydro-5H-imidazo[4,5-c]pyridin-5-yl)methanone] | 0.5 to 1 |

same assay, conditions: A375 cells expressing human R408W PAH; 24 hrs compound incubation; 13C-Tyrosine by LC-MS; average where tested multiple times; read-out: AC50

| SMILES | AC50 [µM] |
| --- | --- |
| Cc1cccn2nc([C@@H]3c4nc[nH]c4CCN3C(=O)c3nnc(C4CC(F)(F)C4)o3)cc12 [Example 1598, (S)-(5-(3,3-difluorocyclobutyl)-1,3,4-oxadiazol-2-yl)(4-(4-methylpyrazolo[1,5-a]pyridin-2-yl)-6,7-dihydro-1H-imidazo[4,5-c]pyridin-5(4H)-yl)methanone] | 0.5 to 1 |
| Cc1nc(C(C)(C)F)oc1C(=O)N1CCc2[nH]cnc2[C@H]1c1cc2c(C)cccn2n1 [Example 1260, (S)-(2-(2-fluoropropan-2-yl)-4-methyloxazol-5-yl)(4-(4-methylpyrazolo[1,5-a]pyridin-2-yl)-6,7-dihydro-1H-imidazo[4,5-c]pyridin-5(4H)-yl)methanone] | < 0.5 |
| Cn1cc(-c2nnc(C(=O)N3CCc4[nH]cnc4[C@H]3c3cc4c(C(F)(F)F)cccn4n3)o2)cn1 [Example 828, (S)-(5-(1-methyl-1H-pyrazol-4-yl)-1,3,4-oxadiazol-2-yl)(4-(4-(trifluoromethyl)pyrazolo[1,5-a]pyridin-2-yl)-6,7-dihydro-1H-imidazo[4,5-c]pyridin-5(4H)-yl)methanone] | < 0.5 |
| Cn1nc(Cl)nc1C(=O)N1CCc2[nH]cnc2[C@H]1c1cc2c(Cl)cccn2n1 [Example 1054, (S)-(3-chloro-1-methyl-1H-1,2,4-triazol-5-yl)(4-(4-chloropyrazolo[1,5-a]pyridin-2-yl)-6,7-dihydro-1H-imidazo[4,5-c]pyridin-5(4H)-yl)methanone] | < 0.5 |
| CC(O)c1nc(Br)c(C(=O)N2CCc3[nH]cnc3[C@H]2c2cc3ccccn3n2)o1 (single isomer, unassigned) [Example 997] | < 0.5 |
| O=C(c1cnn2cc(-c3ccccn3)ccc12)N1CCc2[nH]cnc2[C@@H]1c1cc2ccccn2n1 [Example 1417, (R)-(4-(pyrazolo[1,5-a]pyridin-2-yl)-6,7-dihydro-1H-imidazo[4,5-c]pyridin-5(4H)-yl)(6-(pyridin-2-yl)pyrazolo[1,5-a]pyridin-3-yl)methanone] | 1 to 5 |
| O=C(c1nnc(-c2ccccn2)o1)N1CCc2[nH]cnc2[C@H]1c1cc2ccccn2n1 [Example 605, (S)-(4-(pyrazolo[1,5-a]pyridin-2-yl)-6,7-dihydro-1H-imidazo[4,5-c]pyridin-5(4H)-yl)(5-(pyridin-2-yl)-1,3,4-oxadiazol-2-yl)methanone] | 0.5 to 1 |
| O=C(c1nnc(-c2ccncc2)o1)N1CCc2[nH]cnc2[C@@H]1c1cc2c(F)cccn2n1 [Example 831, (R)-(4-(4-fluoropyrazolo[1,5-a]pyridin-2-yl)-6,7-dihydro-1H-imidazo[4,5-c]pyridin-5(4H)-yl)(5-(pyridin-4-yl)-1,3,4-oxadiazol-2-yl)methanone] | 1 to 5 |
| Cc1cccn2nc([C@@H]3c4nc[nH]c4CCN3C(=O)c3nnc(C4(C)CC4)o3)cc12 [Example 1323, (S)-(5-(1-methylcyclopropyl)-1,3,4-oxadiazol-2-yl)(4-(4-methylpyrazolo[1,5-a]pyridin-2-yl)-6,7-dihydro-1H-imidazo[4,5-c]pyridin-5(4H)-yl)methanone] | < 0.5 |
| CC(C)(O)c1nc(C(F)(F)F)c(C(=O)N2CCc3[nH]cnc3[C@H]2c2cc3cccc(C(F)(F)F)n3n2)o1 [Example 1178, (S)-(2-(2-hydroxypropan-2-yl)-4-(trifluoromethyl)oxazol-5-yl)(4-(7-(trifluoromethyl)pyrazolo[1,5-a]pyridin-2-yl)-6,7-dihydro-1H-imidazo[4,5-c]pyridin-5(4H)-yl)methanone] | < 0.5 |
| COc1ccc(-c2nnc(C(=O)N3CCc4[nH]cnc4[C@H]3c3cc4cccc(C)n4n3)o2)nc1 [Example 910, (S)-(5-(5-methoxypyridin-2-yl)-1,3,4-oxadiazol-2-yl)(4-(7-methylpyrazolo[1,5-a]pyridin-2-yl)-6,7-dihydro-1H-imidazo[4,5-c]pyridin-5(4H)-yl)methanone] | 0.5 to 1 |
